Data: patent US12410133B2, “Crystalline (r)-5-carbamoylpyridin-3-yl-2-methyl-4-(3-(trifluoromethoxy)benzyl)piperazine-1-carboxylate, compositions and methods of use thereof” (Celgene Corporation, priority 2018, dated 2025)
≈ marks a conversion by molar mass, not a printed value.

Key:
Type in all cases: physicochemical
[1] = Solubility of Form B in FaSSIF-v2 and FeSSIF-v2 at 37° C.; conditions: for Final Form: residual solid by XRPD, 2 hr
Procedure: Solubility of Form B was evaluated at 2 hr for Form B in FaSSIF-v2 and FeSSIF-v2 at 37° C. Approximately 10 to 20 mg of Form B sample was added in 0.8 mL of corresponding bio-relevant medium to form a suspension, followed by shaking at 500 rpm at 37° C. After 2 hr, the supernatants were isolated by centrifugation (7200 rpm for 5 min) followed by filtration through […] PTFE membrane and were tested by HPLC concentration and pH. The residual solids were characterized by XRPD. As summarized in Table 17, Form B converted to a new form (Form C) after solubility evaluation, while the solubility in FaSSIF-v2 and FeSSIF-v2 was measured to be 0.12 and 0.080 mg/mL, respectively.

[2] = Visual solubility assessment of Form B at room temperature; conditions: organic solvent or mixture, thermodynamic from solid
Procedure: Approximately 55 to 90 mg of Form B was added into a 4 mL glass vial. Solvent list in Table 18 was added into each of the vial. These samples were stirred for 3 minutes prior to visual solubility assessment.

[3] = Interconversion study: competitive slurry of Form A and B; conditions: competitive slurry, H2O/PhMe, 1-3 weeks
Procedure: An interconversion study of crystal forms was performed. To understand the thermodynamic stability relationship between Form A and B, competitive slurry experiments were performed at RT and 50° C. in water and toluene. Prior to the study, Form A was used to saturate the corresponding solvent before it was filtered to obtain a near-saturated solution. Equal amounts of Form A and B samples were weighed and then mixed with the prepared near-saturated solution to form a new suspension, which was stirred magnetically (˜1000 rpm) at RT and 50° C.

| SMILES | solubility at 2 h ([1]; FaSSIF-v2, thermodynamic from solid, FaSSIF (pH 6.5), final pH 6.6) [mg/mL] | solubility at 2 h ([1]; FeSSIF-v2, thermodynamic from solid, FeSSIF (pH 5.8), final pH 5.9) [mg/mL] | Final Form ([1]; FaSSIF (pH 6.5)) | Final Form ([1]; FeSSIF (pH 5.8)) | solubility at 3 min ([2]; 2-Me THF, room temperature) [mg/mL] | solubility at 3 min ([2]; 2-Propanol, room temperature) [mg/mL] | solubility at 3 min ([2]; Acetone, room temperature) [mg/mL] | solubility at 3 min ([2]; Acetonitrile, room temperature) [mg/mL] | solubility at 3 min ([2]; Dichloromethane, room temperature) [mg/mL] | solubility at 3 min ([2]; EtOH, room temperature) [mg/mL] | solubility at 3 min ([2]; Ethyl Acetate, room temperature) [mg/mL] | solubility at 3 min ([2]; H2O/MeCN 1/3 (v/v) Aw~0.9, room temperature) [mg/mL] | solubility at 3 min ([2]; H2O/MeOH 1/3 (v/v) Aw~0.5, room temperature) [mg/mL] | solubility at 3 min ([2]; Isopropyl Acetate, room temperature) [mg/mL] | solubility at 3 min ([2]; Nitromethane, room temperature) [mg/mL] | Final Form ([3]; 50° C.) | Final Form ([3]; RT) |
| --- | --- | --- | --- | --- | --- | --- | --- | --- | --- | --- | --- | --- | --- | --- | --- | --- | --- |
| C[C@@H]1CN(Cc2cccc(OC(F)(F)F)c2)CCN1C(=O)Oc1cncc(C(N)=O)c1 [Form B, (R)-5-carbamoylpyridin-3-yl-2-methyl-4-(3-(trifluoromethoxy)benzyl)piperazine-1-carboxylate] | 0.12 (≈ 0.274 mM) | 0.08 (≈ 0.182 mM) | Form C | Form C | > 810 | > 365 | > 430 | > 720 | > 830 | > 800 | > 800 | > 730 | > 780 | < 810 | > 560 |  |  |
| C[C@@H]1CN(Cc2cccc(OC(F)(F)F)c2)CCN1C(=O)Oc1cncc(C(N)=O)c1 [Form A + B, (R)-5-carbamoylpyridin-3-yl-2-methyl-4-(3-(trifluoromethoxy)benzyl)piperazine-1-carboxylate] |  |  |  |  |  |  |  |  |  |  |  |  |  |  |  | Form A | Form A |
